Source: patent US6281354A, “Analogs of duocarmycin and cc-1065” (The Scripps Research Institute, priority 1999, dated 2001)
Where two headings read alike, the source gives them in different places.

Tests used:
[1] = In vitro cytotoxic activity; settings: for cytotoxic activity of seco precursor compared with cyclopropane agent: versus 17-20, 23, 30 and 31, respectively; for cytotoxic potency, effect of terminal N^2 substituent (18, 23, 24 compared): natural and unnatural enantiomers; for cytotoxic potency of the two enantiomers compared: natural versus unnatural enantiomer
[2] = system: duplex DNA (w794, w836, c988, c820, c1346); type: biochemical, SV40
[3] = Chemical/aqueous solvolysis reactivity followed by UV; type: physicochemical; settings: for solvolysis rate constant κ, pH 3: pH 3, 50% CH3 OH-buffer
Text: The solvolysis reactivities of N--BOC-CNA (78) and CNA (79) were followed spectrophotometrically by UV at both pH 3 (50% CH3 OH-buffer, buffer=4:1:20 v/v/v 0.1 M citric acid, 0.2 M Na2 HPO4, H2 O) and pH 7 (50% CH3 OH--H2 O). […] Particularly informative are comparisons of the benzo series of agents that differ only in the C-ring size (i.e., 76-79). Solvolysis reactivity smoothly increases through the series CBI<CBQ<CNA with both the N--BOC derivatives and the free NH derivatives.
Aqueous Solvolysis of N--BOC-CNA (78) and CNA (79). Samples of 78 (150 μg) and 79 (150 [g) were dissolved in CH3 OH (1.5 mL) and the resulting solutions were mixed with aqueous buffer (pH 3, 1.5 mL, 4:1:20 (v:v:v) 0.1 M citric acid, 0.2 M Na2 HPO4, and deionized H2 O respectively). Similarly, a solution of 78 (150 μg) in CH3 OH (1.5 mL) was mixed with deionized H2 O (pH 7, 1.5 mL). The UV spectra of the solutions were measured immediately after mixing with the appropriate aqueous solution. The blank and the solvolysis reaction solutions were stoppered, protected from light, and allowed to stand at 25° C. The total reaction times reflect those required to observe no further change in absorbance. For the solvolysis of 78 at pH 3, the UV spectrum was taken every 30 s for 10 min and then every 3 min for the next 40 min. The decrease of the absorbance at 319 nm was monitored. […] For the solvolysis of 78 at pH 7, the UV spectrum was monitored every 5 min for 19 h. […] For the solvolysis of 79 at pH 3, the UV spectrum was monitored every 2 min for the first 110 min and then every 10 min for the next 4 h. The decrease in the absorbance at 345 nm was recorded.

[4] = 50% ch3oh-buffer, pH 3, pH 3, 50% CH3 OH-buffer, 25° C., read-out: solvolysis t1/2, pH 3 (h) (converted)
[5] = 50% ch3oh-buffer, pH 3, pH 3, 50% CH3 OH-buffer, 25° C., read-out: solvolysis t1/2, pH 3 (min)

## COC(=O)c1cc2c3c(ccc2[nH]1)N(C(=O)c1cc2c4c(cc(O)c2[nH]1)N(C(=O)c1cc2c5c(ccc2[nH]1)N(C(N)=O)CC5)CC4CCl)CC3 (stereo not drawn) [compound 28, 7-[(Methyl 1,2-Dihydro-(3H-pyrrolo[3,2-e]indole-3-yl)carbonyl-7-carboxy-late)-3-(3-carbamoyl-1,2-dihydro-3H-pyrrolo[3,2-e]indol-7-yl)carbonyl]-1-(chloromethyl)-5-hydroxy-1,2-dihydro-3H-pyrrolo[3,2-e]indole]
[1]
  cytotoxic activity of seco precursor compared with cyclopropane agent: not distinguishable

## COC(=O)c1cc2cc(NC(=O)c3cc4cc(NC(=O)c5cc6c([nH]5)C(=O)C=C5N(C(=O)OC(C)(C)C)CC7CC567)ccc4[nH]3)ccc2[nH]1 (stereo not drawn) [compound 18, N-{2-[N-(2-Methoxycarbonyl-1H-indol-5-yl)]carbamoyl-1H-indol-5-yl}-2-(tert-butyloxycarbonyl)-1,2,8,8a-tetrahydrocyclopropa[c]pyrrolo[3,2-e]indol-4-one-6-carboxamide]
[1]
  cytotoxic potency, effect of terminal N^2 substituent (18, 23, 24 compared): essentially indistinguishable
[1]; natural enantiomers
  cytotoxic potency compared with simple derivatives N--BOC-DSA (4) and N--Ac-DSA: essentially indistinguishable
[2]
  AT-rich adenine N3 alkylation selectivity (size of site): 5 base-pair
  comparison of DNA alkylation selectivity: no differences in their DNA alkylation selectivity
  less efficient at alkylating DNA than DSA-indole2: ca. 100 ×
  slower DNA alkylation than DSA-indole2: ca. 1000 ×
  unnatural enantiomer less effective at DNA alkylation than natural enantiomer: approximately 10 ×

## CC(C)(C)OC(=O)N1CCCC2CC23C1=CC(=O)c1ccccc13 (stereo not drawn) [compound 78]
[3]
  more reactive than N--BOC-DSA (solvolysis): 10^3 -10^4 ×
  more reactive than the corresponding CBI derivative (solvolysis): 4750 ×
  solvolysis reactivity/stability in words or rank order: sufficiently reactive to undergo rapid solvolysis even at pH 7
[3]; [4]
  half-life: 0.028 h
[3]; [5]
  half-life: 0.0283 h
[3]; 50% ch3oh-h2o, pH 7, pH 7, 50% CH3 OH--H2 O, 25° C., read-out: solvolysis t1/2, pH 7 (converted)
  half-life: 2.1 h
[3]; 50% methanol-water, pH 7, pH 7, no added acid catalysis, read-out: solvolysis t1/2, pH 7 (converted)
  half-life: 2.1 h
[3]; listed as N--BOC-CNA
  solvolysis reactivity/stability in words or rank order: between that of N--BOC-CBQ and the exceptionally reactive N--BOC-CI
[3]; 25° C.
  solvolysis rate constant κ, pH 3: 6.90×10^-3 s^-1
[3]; pH 7, 50% CH3 OH--H2 O, 25° C.
  solvolysis rate constant κ, pH 7: 9.16×10^-5 s^-1
[3]; pH 7, no added acid catalysis
  solvolysis t1/2, pH 7 (h): 2.1 h

## COc1cc2cc(C(=O)N3CCCC4CC45C3=CC(=O)c3ccccc35)[nH]c2c(OC)c1OC (stereo not drawn) [compound 98, N-[(5,6,7-Trimethoxyindol-2-yl)carbonyl]-1,2,3,4,11,11a-hexahydrocyclopropa-[c]naphtho[2,1-b]azepin-6-one]
[1]; natural enantiomer
  more potent cytotoxicity than N--BOC-CNA (78), natural enantiomer: 5-10 ×
[1]; unnatural enantiomers
  difference in cytotoxic potency versus N--BOC-CNA, unnatural enantiomer: 1-2 ×

## O=C1C=C2NCCCC3CC23c2ccccc21 (stereo not drawn) [compound 79, 1,2,3,4,11,11a-Hexahydrocyclopropa[c]naphtho[2,1-b]azepin-6-one]
[3]
  more reactive than the corresponding CBI derivative (solvolysis): 1500 ×
  reactivity difference, CNA versus CBQ: over a hundred-fold difference in reactivity
  solvolysis reactivity/stability in words or rank order: sufficiently reactive to undergo rapid solvolysis even at pH 7
[3]; [4]
  half-life: 0.62 h
[3]; [5]
  half-life: 0.617 h
[3]; listed as CNA
  solvolysis reactivity/stability in words or rank order: CBI<CBQ<CNA
[3]; listed as CNA (79)
  solvolysis reactivity/stability in words or rank order: considerably more stable than N--BOC-CNA (78)
[3]; 25° C.
  solvolysis rate constant κ, pH 3: 3.10×10^-4 s^-1

## O=C1C=C2NCC3CC23c2ccccc21 (stereo not drawn) [CBI, reference compound]
[3]
  solvolysis reactivity difference, CBI versus CBQ: 10 -fold
  solvolysis reactivity/stability in words or rank order: CBI<CBQ<CNA

## COC(=O)c1cc2cc(NC(=O)c3cc4cc(NC(=O)c5cc6c7c(cc(O)c6[nH]5)N(C(C)=O)CC7CCl)ccc4[nH]3)ccc2[nH]1 (stereo not drawn) [compound 22, N-{2-[N-(2-Methoxycarbonyl-1H-indol-5-yl)]carbamoyl-1H-indol-5-yl}-3-acetyl-1-(chloromethyl)-5-hydroxy-1,2-dihydro-3H-pyrrolo[3,2-e]indole-7-carboxamide]
[1]
  cytotoxic activity of seco precursor compared with cyclopropane agent: not distinguishable

## COC(=O)c1cc2c3c(ccc2[nH]1)N(C(=O)c1cc2c4c(cc(O)c2[nH]1)N(C(=O)c1cc2cc(OC)c(OC)c(OC)c2[nH]1)CC4CCl)CC3 (stereo not drawn) [compound 29, 7-[(Methyl 1,2-Dihydro-3H-pyrrolo[3,2e]indole-3-yl)carbonyl-7-carboxylate]-3-[(5,6,7-trimethoxyindol-2-yl)carbonyl]-1-(chloromethyl)-5-hydroxy-1,2-dihydro-3H-pyrrolo[3,2-e]indole]
[1]
  cytotoxic activity of seco precursor compared with cyclopropane agent: not distinguishable

## CC(C)(C)OC(=O)N1CCCC2CC23C1=CC(=O)c1ccccc13 (single isomer, unassigned; (+)) [(+)-78]
[1]
  cytotoxic potency of the two enantiomers compared: more potent activity

## COC(=O)N1CCCC2CC23C1=CC(=O)c1ccccc13 (stereo not drawn) [compound 97, N-(Methoxycarbonyl)-1,2,3,4,11,11a-hexahydrocyclopropa[c]naphtho[2,1-b]azepin-6-one]
[3]
  more reactive than N--BOC-DSA (solvolysis): 10^3 -10^4 ×
[3]; 50% methanol-water, pH 7, no added acid catalysis, read-out: solvolysis t1/2, pH 7 (converted)
  half-life: 2.1 h

## COC(=O)c1cc2c([nH]1)C(=O)C=C1N(C(=O)c3cc4c5c(ccc4[nH]3)N(C(=O)c3cc4c6c(ccc4[nH]3)N(C(N)=O)CC6)CC5)CC3CC123 (stereo not drawn) [compound 61]
[1]
  cytotoxic potency of the two enantiomers compared: nearly equipotent

## COC(=O)c1cc2cc(NC(=O)c3cc4cc(NC(=O)c5cc6c([nH]5)C(=O)C=C5NCC7CC567)ccc4[nH]3)ccc2[nH]1 (stereo not drawn) [compound 24]
[1]
  cytotoxic potency, effect of terminal N^2 substituent (18, 23, 24 compared): noticeably less potent
[2]
  DNA alkylation efficiency relative to 18: about an order of magnitude less efficient
  comparison of DNA alkylation selectivity: no differences in their DNA alkylation selectivity
  less efficient at alkylating DNA than DSA-indole2: ca. 100 ×
  slower DNA alkylation than DSA-indole2: ca. 1000 ×
  unnatural enantiomer less effective at DNA alkylation than natural enantiomer: approximately 10 ×

## COC(=O)c1cc2c3c(ccc2[nH]1)N(C(=O)c1cc2c([nH]1)C(=O)C=C1N(C(=O)c4cc5cc(OC)c(OC)c(OC)c5[nH]4)CC4CC124)CC3 (stereo not drawn) [compound 31]
[1]
  cytotoxic potency compared with typical agents: essentially equipotent with the typical agents

## COC(=O)c1cc2c3c(ccc2[nH]1)N(C(=O)c1cc2c([nH]1)C(=O)C=C1N(C(=O)OC(C)(C)C)CC4CC124)CC3 (stereo not drawn) [compound 19, 6-[(Methyl 1,2-Dihydro-3H-pyrrolo[3,2-e]indole-3-yl)carbonyl-7-carboxylate]-2-((tert-butyloxy)carbonyl)-1,2,8,8a-tetrahydrocyclopropa[c]-pyrrolo[3,2-e]indol-4-one]
[1]; natural enantiomers
  more potent cytotoxicity than simple derivatives N--BOC-DSA (4) and N--Ac-DSA: less than 10 ×
[2]
  AT-rich adenine N3 alkylation selectivity (size of site): 3.5 base-pair

## COC(=O)c1cc2cc(NC(=O)c3cc4c([nH]3)C(=O)C=C3N(C(=O)OC(C)(C)C)CC5CC345)ccc2[nH]1 (stereo not drawn) [compound 17, N-(Methyl 1H-Indol-5-yl-2-carboxylate)-2-((tert-butyloxy)carbonyl)-1,2,8,8a-tetrahydrocyclopropa[c]pyrrolo[3,2-e]indol-4-one-7-carboxamide]
[1]; natural enantiomers
  cytotoxic potency compared with simple derivatives N--BOC-DSA (4) and N--Ac-DSA: essentially indistinguishable
[2]
  AT-rich adenine N3 alkylation selectivity (size of site): 3.5 base-pair

## O=C1C=C2NCCC3CC23c2ccccc21 (stereo not drawn) [CBQ, reference compound]
[3]
  solvolysis reactivity difference, CBI versus CBQ: 10 -fold
  solvolysis reactivity/stability in words or rank order: CBI<CBQ<CNA

## COC(=O)c1cc2cc(NC(=O)c3cc4cc(NC(=O)c5cc6c([nH]5)C(=O)C=C5N(C(C)=O)CC7CC567)ccc4[nH]3)ccc2[nH]1 (stereo not drawn) [compound 23, N-{2-[N-(2-Methoxycarbonyl-1H-indol-5-yl)]carbamoyl-1H-indol-5-yl}-2-acetyl-1,2,8,8a-tetrahydrocyclopropa[c]pyrrolo[3,2-e]indole4-one-6-carboxamide]
[1]
  cytotoxic potency, effect of terminal N^2 substituent (18, 23, 24 compared): essentially indistinguishable
[1]; natural enantiomers
  cytotoxic potency compared with simple derivatives N--BOC-DSA (4) and N--Ac-DSA: essentially indistinguishable
[2]
  comparison of DNA alkylation selectivity: no differences in their DNA alkylation selectivity
  less efficient at alkylating DNA than DSA-indole2: ca. 100 ×
  more efficient DNA alkylation than the BOC derivative 18: 2-5 ×
  slower DNA alkylation than DSA-indole2: ca. 1000 ×
  unnatural enantiomer less effective at DNA alkylation than natural enantiomer: approximately 10 ×
